This note sets out measurements from patent US10774051B2, “6-membered heterocyclic derivatives and pharmaceutical composition comprising the same” (Shionogi & Co., Ltd., priority 2015, dated 2020).

The structures appear in SMILES notation. pIC50: −log10 of the molar value. A value given as a limit tells only on which side of the number the result lay.

The first assay deals with human P2X7 receptor (Homo sapiens, UniProt Q99572, R270H/Y155H). The assay is described as follows: Evaluation of human P2X7 receptor inhibitory activity (Yo-Pro uptake, BzATP stimulation, FLIPR TETRA). As to conditions: 1321N1 cells stably expressing human P2X7 receptor; BzATP stimulation, Yo-Pro uptake; read-out: IC50 (antagonistic activity for the human P2X7 receptor). Type of assay: cell-based. The procedure, abridged:
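1321N1 cells stably expressing human P2X7 (T606C/G952A SNP variant), in HBSS buffer pH 7.4-7.5 with Yo-Pro, stimulated with BzATP; compound added 8 min after agonist. Fluorescence followed for 20 min on FLIPR; max-minus-min change gave % inhibition, IC50 by logistic fit.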
Broadly, the pIC50 is the IC50 on a negative log10 scale, so that one unit is a factor of ten. For `Cc1cc2c(cc1Nc1nc(=O)c(F)cn1Cc1ccc(F)cc1)OCCO2` [Compound I-0367], the negative-log IC50 (pIC50) is 7.89.
Still for that read-out and setting: next, `Cc1cc(Nc2nc(=O)c(Cl)cn2Cc2cc(F)cc(F)c2)c2cc[nH]c2c1` [Compound I-0706]: 7.82; `COc1cn(Cc2ccccc2)c(NC2C[C@@H]3CC[C@H]2C3)nc1=O` (stereo partly drawn) [Compound I-0042]: 6.08; `COc1cn(Cc2cc(F)cc(F)c2)c(Nc2cc3ncccc3cc2C)nc1=O` [Compound I-0774]: 6.96.
On to `CCc1ccccc1CNc1nc(=O)c(OC)cn1Cc1ccc(F)c(Cl)c1` [Compound I-0453], for which the pIC50 was 7.14.

Staying with this assay, now noted: 1321N1 cells stably expressing human P2X7 receptor; BzATP stimulation, Yo-Pro uptake; read-out: IC50 (antagonistic activity for the human P2X7 receptor), class symbol.
For `COc1cn(Cc2ccccc2)c(NCc2ccccc2Oc2ccc(C)cc2)nc1=O` [Compound I-0066], the pIC50 is 6.00 to 6.30.
The same measure, in the same setting: next, `COc1cn(Cc2cc(C)cc(C)c2)c(Nc2cccc(Cl)c2C)nc1=O` [Compound I-0521]: 6.00 to 6.30; `COc1cn(Cc2ccccc2)c(Nc2cc(SC(F)(F)F)ccc2C)nc1=O` [Compound I-0512]: 6.30 to 7.00; `COc1cn(Cc2cc(Cl)cc(Cl)c2)c(Nc2cccc(Cl)c2C)nc1=O` [Compound I-0317]: 6.30 to 7.00.
Take `COc1cc(C)c(Nc2nc(=O)c(F)cn2Cc2ccc(F)c(Cl)c2)cc1OC` [Compound I-0309]: the pIC50 was greater than 8.00.
As to `COc1cn(Cc2cccc(OC(F)(F)F)c2)c(Nc2cccc(Cl)c2C)nc1=O` [Compound I-0304], the pIC50 is 6.00 to 6.30.
Take `COc1cn(Cc2cc(F)cc(Cl)c2)c(Nc2cccc(Cl)c2C)nc1=O` [Compound I-0285]: the pIC50 is 7.00 to 8.00.
As to `COc1cc(C)c(Nc2nc(=O)c(Cl)cn2Cc2ccccc2)cc1OC` [Compound I-0310], the pIC50 is 7.00 to 8.00.
The same measure, in the same setting: next, `CCc1c(Nc2nc(=O)c(OC)cn2Cc2ccc(F)cc2)cccc1OC` [Compound I-0213]: greater than 8.00; `COc1cn(Cc2ccc(F)c(Cl)c2)c(Nc2ccc(Cl)cc2C)nc1=O` [Compound I-0564]: 7.00 to 8.00.
For the compound `CCc1ccccc1Nc1nc(=O)c(OC)cn1Cc1cc(F)c(F)c(F)c1` [Compound I-0568], the pIC50 is 7.00 to 8.00.
As for `COc1cn(Cc2cc(F)c(F)c(F)c2)c(Nc2cc(C)c(Cl)cc2C)nc1=O` [Compound I-0575], the pIC50 is greater than 8.00.
For `COc1cn(Cc2cccc(Cl)c2)c(Nc2ccc(C)cc2C)nc1=O` [Compound I-0374], the pIC50 is 7.00 to 8.00.
`CCc1ccccc1Nc1nc(=O)c(F)cn1Cc1ccc(F)cc1` [Compound I-0140]: the pIC50 was 7.00 to 8.00.
For the compound `Cc1cccc(Nc2nc(=O)c(C(=O)O)cn2Cc2ccccc2)c1Cl` [Compound I-0112], the pIC50 is 7.00 to 8.00.
In the case of `COc1c(C)cccc1Nc1nc(=O)c(OC)cn1Cc1ccccc1` [Compound I-0130], the pIC50 is 6.30 to 7.00.
With `Cc1c(Cl)cccc1Nc1nc(=O)c(CC(=O)NC2CCOCC2)cn1Cc1ccccc1` [Compound I-0338], the pIC50 was 6.30 to 7.00.

The same assay, now with this note: antagonistic activity for the human P2X7 receptor; read-out: IC50.
With `COc1cn(Cc2ccc(F)c(Cl)c2)c(Nc2cc3[nH]ccc3cc2C)nc1=O` [Compound I-0619], the pIC50 is greater than 8.00.
Still for that read-out and setting: under `COc1cn(Cc2ccccc2)c(Nc2cc(OC(F)F)c(C)cc2C)nc1=O` [Compound I-0875] stands 7.00 to 8.00; under `CCc1cc(Br)ccc1Nc1nc(=O)c(OC)cn1Cc1cc(F)cc(Cl)c1` [Compound I-0656], 7.00 to 8.00; under `CCOC(=O)c1nn(Cc2cc(F)c(F)c(F)c2)c(Nc2cc(OC)c(OC)cc2C)nc1=O` [Compound I-1252], 7.00 to 8.00.
Same read-out and setting: next, `Cc1c(Nc2nc(=O)ccn2Cc2cc(F)cc(F)c2)ccc2[nH]ccc12` [Compound I-1171]: greater than 8.00; `COc1cn(Cc2ccc(F)c(Cl)c2)c(Nc2cc(C)c(OCC(F)(F)F)cc2C)nc1=O` [Compound I-0807]: 7.00 to 8.00.
`COc1ccc(C)c(Nc2cc(=O)c(OC)cn2Cc2ccc(F)c(Cl)c2)c1` [Compound I-0947]: the pIC50 was 7.00 to 8.00.
As for `COc1cn(Cc2cc(F)cc(Cl)c2)c(Nc2cc3sc(C)nc3cc2C)nc1=O` [Compound I-0669], the pIC50 is 7.00 to 8.00.
The same measure, in the same setting: under `COc1cn(Cc2cc(F)cc(F)c2)c(Nc2cc(OC3CC3)ccc2C)nc1=O` [Compound I-0892] stands 7.00 to 8.00; under `CCc1ccc(Br)cc1Nc1nc(=O)c(OC)cn1Cc1ccccc1` [Compound I-0621], greater than 8.00; under `CCc1ccc(OC)cc1Nc1nc(=O)c(OC)cn1Cc1cc(F)c(F)c(F)c1` [Compound I-0673], greater than 8.00.
In the case of `Cc1cc(OC(F)F)c(C)cc1Nc1nc(=O)c(Cl)cn1Cc1ccc(F)c(F)c1` [Compound I-0838], the pIC50 was greater than 8.00.
Turning to `Cc1ccc(CF)cc1Nc1nc(=O)c(F)cn1Cc1cc(F)cc(F)c1` [Compound I-1240], the pIC50 was greater than 8.00.
With `COCc1cn(Cc2cc(F)c(F)c(F)c2)c(Nc2cc(OCCO)ccc2C)nc1=O` [Compound I-1125], the pIC50 is 7.00 to 8.00.
On to `Cc1ccc(C)c(Nc2nc(=N)c(F)cn2Cc2cc(F)c(F)c(F)c2)c1` [Compound I-1294], for which the pIC50 is 7.00 to 8.00.
Same read-out and setting: under `CCOc1cc(Nc2nc(=O)c(OC)cn2Cc2cc(F)cc(F)c2)c(C)cc1C` [Compound I-0794] stands greater than 8.00; under `COc1cn(Cc2ccc(F)c(F)c2)c(Nc2cc(OC(F)F)c(C)cc2C)nc1=O` [Compound I-0878], greater than 8.00.
Take `COc1cn(Cc2cc(F)c(F)c(F)c2)c(Nc2cc3c(cc2C)OCC3)nc1=O` [Compound I-0866]: the pIC50 was greater than 8.00.
Take `COc1ccc(C)c(Nc2nc(=O)c(C(=O)O)cn2Cc2cc(F)c(F)c(F)c2)c1` [Compound I-1128]: the pIC50 is 7.00 to 8.00.
With `Cc1ccc(CO)cc1Nc1nc(=O)c(F)cn1Cc1ccc(F)c(Cl)c1` [Compound I-1013], the pIC50 is greater than 8.00.
On the same count and under the same terms, under `COc1cc(Nc2nc(=O)ccn2Cc2ccc(F)c(Cl)c2)c(C)c(OC)c1` [Compound I-1166] stands greater than 8.00; under `COc1cn(Cc2ccccc2)c(Nc2cc3ncccc3cc2C)nc1=O` [Compound I-0770], 6.30 to 7.00.
As to `Cc1cc(OC(F)F)c(C)cc1Nc1nc(=O)c(Cl)cn1Cc1ccc(F)c(Cl)c1` [Compound I-0837], the pIC50 was greater than 8.00.
As for `CCOc1c(C)cccc1Nc1nc(=O)c(F)cn1Cc1cc(F)c(F)c(F)c1` [Compound I-1223], the negative logarithm of the IC50 (pIC50) is greater than 8.00.
Take `Cc1ccc(Cl)cc1Nc1nc(=O)c(F)cn1Cc1cc(F)c(F)c(F)c1` [Compound I-1209]: the pIC50 was greater than 8.00.
On to `CCc1cc(OC)ccc1Nc1nc(=O)c(F)cn1Cc1cc(F)c(F)c(F)c1` [Compound I-1197], for which the negative logarithm of the IC50 (pIC50) is greater than 8.00.
In the case of `COc1ncccc1-c1ccc(C)c(Nc2nc(=O)c(OC)cn2Cc2cc(F)c(F)c(F)c2)c1` [Compound I-0832], the pIC50 is greater than 8.00.
As for `CCOc1cc(Nc2nc(=O)c(OC)cn2Cc2cc(F)cc(F)c2)c(C)cc1F` [Compound I-0920], the pIC50 was 7.00 to 8.00.
For `COc1cn(Cc2ccccc2)c(Nc2ccc3ncsc3c2C)nc1=O` [Compound I-0855], the pIC50 was 7.00 to 8.00.
Same read-out and setting: under `COc1cn(Cc2cc(F)cc(Cl)c2)c(Nc2cccc3c(=O)[nH]ccc23)nc1=O` [Compound I-0651] stands 7.00 to 8.00; under `COc1cn(Cc2ccccc2)c(Nc2cc(C(C)(C)O)ccc2C)nc1=O` [Compound I-0731], 7.00 to 8.00.
With `COc1ccc(Cl)c(Nc2nc(=O)c(F)cn2Cc2cc(F)c(F)c(F)c2)c1` [Compound I-1196], the pIC50 was greater than 8.00.
